Measurements taken from patent publication US20220031713A1, “METHODS OF TREATING MYELOPROLIFERATIVE DISORDERS” (Impact Biomedicines, Inc., priority 2018, published 2022).
Where two headings read alike, the source gives them in different places.

How the values were obtained:
JAK2 signaling = assay: Cellular assay of JAK2 signaling; assay type: cell-based; conditions: cellular assays
[1] = tested on: cellular proliferation driven by mutant JAK2 or mutant MPL; assay: Cellular proliferation driven by mutant JAK2 or mutant MPL; assay type: cell-based; conditions: cellular assays
[2] = tested on: cells expressing constitutively active JAK2; assay: Apoptosis in cells expressing constitutively active JAK2; assay type: cell-based; conditions: cellular assays
[3] = tested on: hematopoietic progenitors isolated from myeloproliferative neoplasm (MPN) patients; assay: Erythroid colony formation of hematopoietic progenitors; assay type: cell-based, human
[4] = tested on: intermediate-2 or high-risk MF; conditions: cited from earlier work
[5] = tested on: intermediate-1 with symptoms, intermediate-2 or high-risk MPN-associated myelofibrosis; conditions: cited from earlier work
JAK2V617F [6] = conditions: non-clinical models of MF; cited from earlier work
JAK2V617F [7] = conditions: MF patients; cited from earlier work
circulating cytokines = conditions: MF patients not previously treated with JAK inhibitors; cited from earlier work
[8] = tested on: PD-L1 expression in lymphoma tumor cells; conditions: cited from earlier work
[9] = tested on: graft-versus-host disease (GVHD); conditions: cited from earlier work
T cell development = conditions: non-clinical data; cited from earlier work
myelofibrosis [10] = conditions: week 24, subgroup with prior ruxolitinib, cited from earlier work
[11] = tested on: intermediate or high-risk MPN-associated myelofibrosis (MF); conditions: at 24 weeks, COMFORT-I; cited from earlier work
[12] = tested on: intermediate or high-risk MPN-associated myelofibrosis (MF); conditions: cited from earlier work
bone marrow fibrosis = conditions: at 24 months; cited from earlier work
[13] = tested on: MPN-associated myelofibrosis; conditions: cited from earlier work
myelofibrosis [14] = conditions: cited from earlier work
[15] = tested on: PD-L1 expression in MPN myeloid cells; conditions: cited from earlier work
MF = conditions: week 24; previous ruxolitinib treatment; cited from earlier work
[16] = patients previously treated with ruxolitinib
[17] = ruxolitinib therapy, compared with BAT

## Cc1cnc(Nc2ccc(OCCN3CCCC3)cc2)nc1Nc1cccc(S(=O)(=O)NC(C)(C)C)c1 [Compound I, fedratinib]
JAK2 signaling
  effect on JAK2 signaling: inhibits JAK2 signaling
[1]
  effect on cellular proliferation driven by mutant JAK2 or mutant MPL: inhibits
[2]
  apoptosis in cells expressing constitutively active JAK2: induces apoptosis
[3]
  erythroid colony formation of hematopoietic progenitors: inhibits erythroid colony formation
[4]; 400 mg daily, all grades
  TEAE diarrhea: 65.6%
  TEAE fatigue: 15.6%
  TEAE nausea: 63.5%
  TEAE peripheral edema: 15.6%
  TEAE vomiting: 41.7%
[4]; 400 mg daily
  TEAE anemia (G3 and G4): 42.7%
  response rate at Cycle 6 as recommended by IWG-MRT (regardless of confirmation): 46.9%
  response rate per primary endpoint (≥35% reduction in spleen volume to End of Cycle 6, confirmed 4 weeks later by MRI): 36.5%
[4]; 400 mg
  TEAEs leading to permanent treatment discontinuation: 27.1%
  subjects achieving a ≥50% reduction in TSS: 36.3%
  subjects reporting Grade 3 or 4 TEAEs: 70.8%
  treatment-emergent serious adverse events (SAEs): 38.5%
[4]; 500 mg daily
  response rate at Cycle 6 as recommended by IWG-MRT (regardless of confirmation): 49.5%
  response rate per primary endpoint (≥35% reduction in spleen volume to End of Cycle 6, confirmed 4 weeks later by MRI): 40.2%
[4]; 500 mg
  TEAEs leading to permanent treatment discontinuation: 36.1%
  subjects achieving a ≥50% reduction in TSS: 34.1%
  subjects reporting Grade 3 or 4 TEAEs: 78.4%
  treatment-emergent serious adverse events (SAEs): 44.3%
[4]; responders from both active groups (400-mg and 500-mg)
  median duration of response (≥35% reduction in spleen volume): 10.4 months
[5]; 97 patients
  patients with at least 1 TEAE (all grades): 97 patients
[5]; all grades
  TEAE anemia: 48.5%
  TEAE diarrhea: 61.9%
  TEAE nausea: 55.7%
  TEAE thrombocytopenia: 26.8%
  TEAE vomiting: 41.2%
[5]; in vivo
  Grade 3 or 4 anemia: Thirty-eight and one-tenth
  Grade 3 or 4 thrombocytopenia: 21.6%
  grade 5 hematologic TEAEs: No grade 5 hematologic TEAEs were reported
  patients reporting Grade 3 or 4 TEAEs: 62.9%
[5]; [16]
  overall spleen response rate (≥35% reduction from baseline in spleen volume to the End of Cycle 6): 55.4%
  subjects achieving a ≥50% reduction in TSS: 25.6%
JAK2V617F [6]
  JAK2V617F frequency: decrease JAK2V617F frequency
JAK2V617F [7]
  JAK2V617F frequency: decrease JAK2V617F frequency
Circulating cytokines
  effect on circulating cytokines: modulate circulating cytokines
[8]
  effect on PD-L1 expression: modulate PD-L1 expression
[9]; non-clinical data
  effect on GVHD: weak effect
T cell development
  effect on T cell development: weak effect

## C1=C/COCc2cc(ccc2OCCN2CCCC2)Nc2nccc(n2)-c2cccc(c2)COC/1 [pacritinib]
Myelofibrosis [10]; 200 mg twice daily
  subjects with spleen volume response of 35% or more: 13%
Myelofibrosis [10]; 400 mg once daily
  subjects with spleen volume response of 35% or more: 6%

## N#CC[C@H](C1CCCC1)n1cc(-c2ncnc3[nH]ccc23)cn1 [ruxolitinib, (3R)-3-cyclopentyl-3-[4-(7H-pyrrolo[2,3-d]pyrimidin-4-yl)pyrazol-1-yl]propanenitrile]
[11]
  proportion of subjects exhibiting a ≥35% reduction in spleen volume as measured by MRI: 41.9%
  subjects with >50% improvement in MFSAF Total Symptom Score (TSS): 45.9%
[12]; at 48 weeks, COMFORT-II
  proportion of subjects exhibiting a ≥35% reduction in spleen volume as measured by MRI: 28.5%
[12]; at 144 weeks, COMFORT-II 3-year follow-up
  Kaplan-Meier estimated probability of survival: 81%
Bone marrow fibrosis
  subjects with improvement in bone marrow fibrosis: 15%
[13]; in vivo
  time after therapy initiation within which responses are typically observed: 3-6 months
[13]; [17]
  treatment-associated anemia: 40.4%
  treatment-associated thrombocytopenia: 44.5%
Myelofibrosis [14]; after ruxolitinib discontinuation
  median survival of relapsed and refractory patients who discontinued ruxolitinib: 6 months
Myelofibrosis [14]; median follow-up of 10 months from stopping ruxolitinib
  patients remaining alive: 34%
[15]
  effect on PD-L1 expression: modulate PD-L1 expression
[9]; preclinical and clinical data
  effect on graft-versus-host disease (GVHD): suppressing graft-versus-host disease

## N#CCNC(=O)c1ccc(-c2ccnc(Nc3ccc(N4CCOCC4)cc3)n2)cc1 [momelotinib]
MF
  subjects with spleen volume response of 35% or more: 7%
